{
  "source": "patent US20060148712A1",
  "about": "“Monocyte chemoattractant activity of galectin-3” (priority 2000, published 2006)",
  "key": {"CXCR-4": {"molecular_target": "T1, CXCR-4 (Homo sapiens, UniProt P61073)", "T1 construct": "Chemokine receptors expressed on monocytes include CCR-1, CCR-2, CCR-5, and CXCR-4; endogenous in cells", "T1 sequence (P61073 whole entry)": "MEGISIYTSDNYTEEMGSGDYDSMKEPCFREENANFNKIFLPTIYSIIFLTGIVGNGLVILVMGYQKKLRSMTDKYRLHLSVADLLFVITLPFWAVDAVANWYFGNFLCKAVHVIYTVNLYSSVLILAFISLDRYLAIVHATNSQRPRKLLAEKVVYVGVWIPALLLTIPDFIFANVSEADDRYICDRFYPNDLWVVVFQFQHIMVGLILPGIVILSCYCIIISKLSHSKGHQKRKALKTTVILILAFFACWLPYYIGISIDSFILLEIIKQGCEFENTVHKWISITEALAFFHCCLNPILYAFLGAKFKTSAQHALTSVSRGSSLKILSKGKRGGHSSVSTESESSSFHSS", "test": "Immunoprecipitation and immunoblotting with specific antibodies", "format": "binding"}, "human monocytes": {"test_system": "human monocytes", "test": "Measurement of Ca2+ influx in monocytes (Indo-1 AM)", "format": "cell-based", "protocol": "Intracellular concentrations of Ca^2+ were measured by using Indo-1 AM according to a previously described method (Lopez, et al., Cytometry 10:165-73 (1989)). Purified monocytes were resuspended in HBSS containing 1 mM Ca^2+, 1 mM Mg^2+, and 5% autologous serum, and incubated with […] Indo-1 AM for 45 min at 37° C. The cells were washed once, resuspended in the same buffer, and stimuli and inhibitors were added at the time points specified in the Figure Legends. Intracellular Ca^2+ concentration was measured by monitoring light emission at 405 and 485 nm to an excitation wavelength of 355 nm, using an AMINCO-Bowman series 2 luminescence spectrometer (Rochester, N.Y.)."}, "[1]": {"test_system": "human alveolar macrophages", "test": "Migration of human alveolar macrophages in vitro", "format": "cell-based", "conditions": "two separate experiments; bell-shaped dose-response curves", "text": "(§1) Human macrophages were obtained by culturing peripheral blood monocytes in vitro for 7 days as previously described (Fantuzzi, et al., Blood 94:875-83 (1999)). Human alveolar macrophages were obtained from bronchoalveolar lavage (BAL) fluid according to a previously described protocol (Sugimoto et al, Am. Rev. Respir. Dis. 139:1329-35 (1989)). The purity of the macrophages was over 90% and the viability was over 99%.\n(§2) Monocyte migration was examined by using 96-well micro Boyden chambers with 5 μm-pore size filters (Neuro Probe, Inc., Gaithersburg, Md.) as described previously (Falk, et al., J. Immunol. Meth. 33:239-47 (1980)), Chertov, et al., J. Biol. Chem. 271:2935-40 (1996)). Briefly, after the indicated concentrations of galectin-3 in RPMI 1640 were applied to the lower chambers, purified monocyte suspensions (2.5-5.0×10^4/well) were applied to the upper chambers. After incubation of the chambers for 1 h in a humidified incubator at 5% CO2 and 37° C., the filters were washed once with PBS and processed with Wright stain. The number of monocytes on the bottom side of the filters was counted in 5 to 10 high-power fields. Monocyte migration was calculated from the average numbers of the counted cells and expressed as % of input cells in a well."}, "[2]": {"test_system": "human peripheral blood monocytes", "test": "Monocyte migration assay in vitro (96-well micro Boyden chamber)", "format": "cell-based", "text": "Human monocytes were purified from venous blood of normal volunteers essentially as described previously (Nakagawara, et al., J. Clin. Invest. 68:1243-53 (1981)). In brief, after erythrocytes were sedimented by addition of 6% dextran saline solution (I part to 5 parts heparinized blood), the leukocytes were collected, washed twice, and resuspended in Ca^2+ and Mg^2+-free HBSS containing 5% autologous serum. Mononuclear cells were acquired by centrifugation of the leukocyte suspension on Ficoll Paque at 1,500 rpm for 15 min. The cells were resuspended in RPMI 1640 containing 10% autologous serum and allowed to adhere to sterile tissue culture plates for 30 min in a humidified incubator at 5% CO2 and 37° C. After incubation, non-adherent cells were removed by washing the plates three times with PBS at 37° C. […] To detach and harvest the adhered monocytes, 1 mM EDTA-PBS containing 5% serum was added and the plates were incubated on ice for 30 min. The monocytes were washed twice with HBSS and resuspended in RPMI 1640 with 0.1% autologous serum for the migration assay. The viability of monocytes was determined by trypan blue exclusion and was more than 98%. In some experiments, monocytes were purified according to another method using a Percoll discontinuous gradient described previously (Chuluyan & Issekutz, J. Clin. Invest. 92:2768-77 (1993)).\nas §2\nIn assays using inhibitory reagents, the purified monocytes were pretreated with or without the indicated concentrations of B2C10 (Liu, et al., Biochemistry 35:[…] (1996)) or anti-DNP IgG1 (Liu, et al., J. Immunol. 124:2728-31 (1980)) as an isotype-matched control mAb, galectin-3C, or PTX at 37° C. for 30 min. Then the cells were applied to the upper chambers in the presence of these inhibitors at the same concentrations used in the pretreatment. In the assays using lactose and sucrose, the sugars were added to the lower chambers at the initiation of the migration assay."}, "lymphocytes": {"test_system": "lymphocytes", "test": "Lymphocyte migration in vitro", "format": "cell-based"}, "[3]": {"test_system": "cultured human peripheral blood macrophages", "test": "Migration of cultured human peripheral blood macrophages in vitro", "format": "cell-based", "conditions": "1 μM galectin-3; p<0.05, n=3", "text": "as §1, §2"}, "eosinophils": {"test_system": "eosinophils", "test": "Eosinophil attraction in vitro (not shown)", "format": "cell-based"}, "CCR-2": {"molecular_target": "T2, CCR-2 (Homo sapiens, UniProt P41597)", "T2 construct": "Chemokine receptors expressed on monocytes include CCR-1, CCR-2, CCR-5, and CXCR-4; endogenous in cells", "T2 sequence (P41597 whole entry)": "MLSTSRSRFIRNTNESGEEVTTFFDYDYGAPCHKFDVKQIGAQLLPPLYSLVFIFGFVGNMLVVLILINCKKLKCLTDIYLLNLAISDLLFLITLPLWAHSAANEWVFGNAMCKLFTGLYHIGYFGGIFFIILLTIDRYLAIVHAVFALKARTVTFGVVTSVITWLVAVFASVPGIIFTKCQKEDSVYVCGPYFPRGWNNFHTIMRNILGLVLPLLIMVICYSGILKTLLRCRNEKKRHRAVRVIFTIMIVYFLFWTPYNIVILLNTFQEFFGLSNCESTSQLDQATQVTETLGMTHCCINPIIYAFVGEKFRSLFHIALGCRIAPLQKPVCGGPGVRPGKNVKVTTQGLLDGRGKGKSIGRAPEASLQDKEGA", "test": "Immunoprecipitation and immunoblotting with specific antibodies", "format": "binding"}, "CCR-5": {"molecular_target": "T3, CCR-5 (Homo sapiens, UniProt P51681)", "T3 construct": "Chemokine receptors expressed on monocytes include CCR-1, CCR-2, CCR-5, and CXCR-4; endogenous in cells", "T3 sequence (P51681 whole entry)": "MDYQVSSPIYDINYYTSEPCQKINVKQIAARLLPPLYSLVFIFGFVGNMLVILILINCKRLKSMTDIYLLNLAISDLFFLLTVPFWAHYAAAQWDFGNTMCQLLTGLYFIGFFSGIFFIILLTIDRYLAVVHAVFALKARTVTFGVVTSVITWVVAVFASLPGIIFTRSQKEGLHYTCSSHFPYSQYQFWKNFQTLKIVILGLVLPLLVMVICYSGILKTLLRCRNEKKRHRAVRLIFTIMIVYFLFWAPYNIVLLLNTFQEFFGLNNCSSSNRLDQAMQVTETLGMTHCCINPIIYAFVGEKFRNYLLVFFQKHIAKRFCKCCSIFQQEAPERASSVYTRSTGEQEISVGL", "test": "Immunoprecipitation and immunoblotting with specific antibodies", "format": "binding"}, "CCR-1": {"molecular_target": "T4, CCR-1 (Homo sapiens, UniProt P32246)", "T4 construct": "Chemokine receptors expressed on monocytes include CCR-1, CCR-2, CCR-5, and CXCR-4; endogenous in cells", "T4 sequence (P32246 1-355)": "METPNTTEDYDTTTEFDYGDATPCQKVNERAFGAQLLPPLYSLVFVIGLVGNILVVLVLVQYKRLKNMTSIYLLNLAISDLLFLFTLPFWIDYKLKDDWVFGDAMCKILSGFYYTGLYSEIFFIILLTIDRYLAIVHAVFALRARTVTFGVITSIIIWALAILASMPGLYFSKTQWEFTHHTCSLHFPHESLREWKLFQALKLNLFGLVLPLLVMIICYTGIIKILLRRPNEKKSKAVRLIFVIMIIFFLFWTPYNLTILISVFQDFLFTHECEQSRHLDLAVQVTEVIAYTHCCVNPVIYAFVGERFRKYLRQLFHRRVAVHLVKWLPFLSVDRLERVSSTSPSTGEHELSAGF", "test": "Immunoprecipitation and immunoblotting with specific antibodies", "format": "binding"}},
  "data": [
    {"substance": "galectin-3: Recombinant human galectin-3, a 26 kDa beta-galactoside-binding protein (lectin)", "values": [
      {"measurement": "Interaction with chemokine receptor", "setting": "CXCR-4", "result": "Neither have interactions between galectin-3 and these four chemokine receptors been detected"},
      {"measurement": "Induction of Ca2+ influx in human monocytes", "setting": "human monocytes; 1 μM galectin-3", "result": "induced a Ca^2+ influx"},
      {"measurement": "Extent of Ca2+ influx compared with MCP-1", "setting": "human monocytes; 1 μM galectin-3 vs 100 ng/ml MCP-1, three separate experiments", "result": "lower than that by the chemokine"},
      {"measurement": "Cross-desensitization of Ca2+ influx with monocyte-reactive chemokines", "setting": "human monocytes; 1 μM galectin-3 vs MCP-1, MIP-1α, SDF-1α at 100 ng/ml, either order", "result": "no cross-desensitization"},
      {"measurement": "Induction of Ca2+ influx in human monocytes", "setting": "human monocytes; galectin-3 concentrations lower than 1 μM", "result": "not"},
      {"measurement": "Migration of human alveolar macrophages", "setting": "[1]", "result": "migrated towards galectin-3"},
      {"measurement": "Monocyte migration (% of input cells)", "setting": "[2]; 10 nM galectin-3, subsequent experiments n=21, control 4.26±1.3%, p<0.001", "result": "7.01±2.1", "unit": "%"},
      {"measurement": "Monocyte migration (% of input cells)", "setting": "[2]; 100 nM galectin-3 in lower chamber, n=4 experiments, diluent control 3.54±2.2%", "result": "6.25±1.3", "unit": "%"},
      {"measurement": "Monocyte migration (% of input cells)", "setting": "[2]; 300 nM galectin-3 in lower chamber, n=4 experiments, diluent control 3.54±2.2%", "result": "9.8±0.33", "unit": "%"},
      {"measurement": "Monocyte migration with galectin-3 in both chambers", "setting": "[2]; 1 μM galectin-3 added to both chambers", "result": "no significant increase in monocyte migration over the background"},
      {"measurement": "Monocyte migration (% of input cells)", "setting": "[2]; 1 μM galectin-3 in lower chamber, n=4 experiments, diluent control 3.54±2.2%", "result": "12.4±1.2", "unit": "%"},
      {"measurement": "Effect on monocyte migration compared with MCP-1", "setting": "[2]; 1 μM galectin-3 vs MCP-1 at 100 ng/ml (11.6 nM)", "result": "comparable to that of human recombinant MCP-1"},
      {"measurement": "Monocyte migration (% migrated cells of the total cells)", "setting": "[2]; checkerboard: galectin-3 above 0 nM, below 10 nM", "result": "8.66 ± 0.22", "unit": "%"},
      {"measurement": "Monocyte migration (% migrated cells of the total cells)", "setting": "[2]; checkerboard: galectin-3 above 0 nM, below 100 nM", "result": "9.96 ± 0.72", "unit": "%"},
      {"measurement": "Monocyte migration (% migrated cells of the total cells)", "setting": "[2]; checkerboard: galectin-3 above 0 nM, below 1000 nM", "result": "13.1 ± 1.33", "unit": "%"},
      {"measurement": "Monocyte migration (% migrated cells of the total cells)", "setting": "[2]; checkerboard: galectin-3 above 10 nM, below 0 nM", "result": "7.55 ± 0.79", "unit": "%"},
      {"measurement": "Monocyte migration (% migrated cells of the total cells)", "setting": "[2]; checkerboard: galectin-3 above 10 nM, below 10 nM", "result": "8.88 ± 1.09", "unit": "%"},
      {"measurement": "Monocyte migration (% migrated cells of the total cells)", "setting": "[2]; checkerboard: galectin-3 above 10 nM, below 100 nM", "result": "9.23 ± 2.23", "unit": "%"},
      {"measurement": "Monocyte migration (% migrated cells of the total cells)", "setting": "[2]; checkerboard: galectin-3 above 10 nM, below 1000 nM", "result": "11.5 ± 3.49", "unit": "%"},
      {"measurement": "Monocyte migration (% migrated cells of the total cells)", "setting": "[2]; checkerboard: galectin-3 above 100 nM, below 0 nM", "result": "10.7 ± 0.86", "unit": "%"},
      {"measurement": "Monocyte migration (% migrated cells of the total cells)", "setting": "[2]; checkerboard: galectin-3 above 100 nM, below 10 nM", "result": "11.4 ± 2.11", "unit": "%"},
      {"measurement": "Monocyte migration (% migrated cells of the total cells)", "setting": "[2]; checkerboard: galectin-3 above 100 nM, below 100 nM", "result": "10.5 ± 2.10", "unit": "%"},
      {"measurement": "Monocyte migration (% migrated cells of the total cells)", "setting": "[2]; checkerboard: galectin-3 above 100 nM, below 1000 nM", "result": "12.5 ± 2.87", "unit": "%"},
      {"measurement": "Monocyte migration (% migrated cells of the total cells)", "setting": "[2]; checkerboard: galectin-3 above 1000 nM, below 0 nM", "result": "3.30 ± 2.82", "unit": "%"},
      {"measurement": "Monocyte migration (% migrated cells of the total cells)", "setting": "[2]; checkerboard: galectin-3 above 1000 nM, below 10 nM", "result": "3.25 ± 3.11", "unit": "%"},
      {"measurement": "Monocyte migration (% migrated cells of the total cells)", "setting": "[2]; checkerboard: galectin-3 above 1000 nM, below 100 nM", "result": "4.55 ± 3.69", "unit": "%"},
      {"measurement": "Monocyte migration (% migrated cells of the total cells)", "setting": "[2]; checkerboard: galectin-3 above 1000 nM, below 1000 nM", "result": "3.50 ± 2.41", "unit": "%"},
      {"measurement": "Nature of the effect on monocytes in vitro", "setting": "[2]; high concentrations (1 μM)", "result": "chemotactic"},
      {"measurement": "Nature of the effect on monocytes in vitro", "setting": "[2]; low concentrations (10 and 100 nM)", "result": "chemokinetic"},
      {"measurement": "Migration of lymphocytes in vitro", "setting": "lymphocytes", "result": "does not induce migration of lymphocytes"},
      {"measurement": "Enhancement of macrophage migration over that induced by the control medium", "setting": "[3]", "result": 190, "unit": "%"},
      {"measurement": "Attraction of eosinophils in vitro", "setting": "eosinophils", "result": "does not attract eosinophils"},
      {"measurement": "Interaction with chemokine receptor", "setting": "CCR-2", "result": "Neither have interactions between galectin-3 and these four chemokine receptors been detected"},
      {"measurement": "Interaction with chemokine receptor", "setting": "CCR-5", "result": "Neither have interactions between galectin-3 and these four chemokine receptors been detected"},
      {"measurement": "Interaction with chemokine receptor", "setting": "CCR-1", "result": "Neither have interactions between galectin-3 and these four chemokine receptors been detected"}
    ]}
  ]
}
